{"source": "patent US10745393B2", "about": "“Small molecular probes, processes and use thereof” (JAWAHARLAL NEHRU CENTRE FOR ADVANCED SCIENTIFIC RESEARCH, priority 2014, dated 2020)", "key": {"[1]": {"assay": "Absorption, emission and quantum yield of probes in Tris-HCl buffer without DNA", "format": "physicochemical"}, "[2]": {"test_system": "(AT)10", "assay": "Absorption / fluorescence response of probes with dsDNA (AT)10", "format": "binding", "settings": "probe 10 μM"}, "[3]": {"test_system": "(D1)mix", "assay": "Fluorescence response / quantum yield of probes with dsDNA (D1)mix", "format": "binding"}, "[4]": {"test_system": "(GC)10", "assay": "Fluorescence response / quantum yield of probes with dsDNA (GC)10", "format": "binding"}, "[5]": {"test_system": "d(AATT)5", "assay": "Absorption / fluorescence response with self-complementary d(AATT)5 duplex", "format": "binding"}, "[6]": {"test_system": "(AT)10", "assay": "Thermal denaturation (UV-melting) of dsDNA with probe TC", "format": "binding"}, "[7]": {"test_system": "(D1)mix", "assay": "Thermal denaturation (UV-melting) of dsDNA with probe TC", "format": "binding"}, "[8]": {"test_system": "(AT)20", "assay": "Agarose gel electrophoresis staining of dsDNA band", "format": "binding", "settings": "3% agarose gel, about 0.6 μg dsDNA, UV-illumination"}, "[9]": {"test_system": "(GC)10", "assay": "Agarose gel electrophoresis staining of dsDNA band", "format": "binding", "settings": "3% agarose gel, about 0.6 μg dsDNA, UV-illumination"}, "[10]": {"test_system": "DNA", "assay": "Comparison of DNA dyes: sequence selectivity and fluorescence of free/DNA bound dye", "format": "binding"}, "[11]": {"test_system": "cells", "assay": "Comparison of DNA dyes: cell permeability", "format": "cell-based", "settings": "Table 3, probe of the disclosure"}, "[12]": {"test_system": "cells", "assay": "Comparison of DNA dyes: toxicity", "format": "cell-based", "settings": "Table 3, probe of the disclosure", "excerpt": "The major advantages of probe TC are: longer excitation/emission wavelengths (which avoids the cell damage due to the UV-light absorption commonly observed with probes like DAPI and Hoechst dyes, and auto-fluorescence from the cellular organelles and biomolecules), larger stoke shift (this provides additional advantage that avoids the self-absorption of higher energy part of their emission, useful in FRET and BRET based assays), good cell permeability (this is the major limitation of existing probes like propidium iodide, TO-PRO-dyes), non-toxicity (toxicity is the major limitation of NIR-fluorescence probes like DRAQ5 probe) and specific staining (commonly observed with SYTO and other dyes are non-specific in nature). Many commercial/reported dyes in literature are known to bind single stranded DNA, RNA etc. The probe TC is highly specific to double stranded DNA. […] In presence of AT-rich DNA, TC is a better probe than EtBr and PI which are highly toxic to cells."}, "[13]": {"test_system": "HeLa S3 cells", "assay": "Confocal fluorescence nuclear staining, co-staining with Hoechst 33258", "format": "cell-based", "settings": "TC 5 μM"}, "[14]": {"test_system": "HEK293 cells", "assay": "Nuclear staining with cytoplasmic marker α-tubulin", "format": "cell-based", "settings": "TC 5 μM"}, "[15]": {"test_system": "HEK293 cells", "assay": "DNase I and RNase digestion studies", "format": "cell-based", "settings": "2 hours", "protocol": "DNase I is known to degrade nuclear DNA while RNase degrades RNA in the cytoplasm by catalyzing phosphodiester bonds cleavage. HEK293 cells are fixed with chilled methanol for about 1 minute at room temperature and permeabilized with 0.1% Triton X-100 in PBS for about 2×5 minutes. After rinsing with PBS twice, for one set of experiments, cells are treated with probe TC (5 μM) for about 15 min at room temperature in three adjacent wells. A total of about 200 μL PBS (as control experiment), about 100 μg/mL DNase I (Sigma), or about 30 μg/ml DNase-Free RNase (GE) is added into the three adjacent wells and incubated at about 37° C. for about 2 hours. For another set of experiments, instead of treating with probe TC, cells are only treated with about 200 μL PBS (as control experiment), about 100 μg/ml DNase I (Sigma), or about 30 μg/mL DNase-Free RNase (GE) by adding into the three adjacent wells and incubating at about 37° C. for about 2 hours. […] After two more washes in PBS with 0.1% Triton X-100, the cover slips are washed in PBS, rinsed in ddH2O and briefly dipped in 100% ethanol. After a quick dry, cover slips are mounted with 70% glycerol. Images are captured using a Carl Zeiss Laser Scanning Microscope (LSM510 META) using an equal exposure time for control, DNase I, and RNase experiments. Experiments are done in duplicate."}, "[16]": {"test_system": "HEK293 cells", "assay": "MTT cytotoxicity assay", "format": "cell-based", "protocol": "10,000 HEK293 cells are seeded in 96-well plate and cultured for about 12 hours. […] Water is used as a control. About 20 μL of MTT (about 5 mg/mL) is added in each well, incubated for about 3 hours at about 37° C. and about 100 μL of DMSO is added. Readings are taken at about 570 nm in ELISA reader (VERSA Max microplate reader, Molecular Devices). The data is normalized with control and plotted with mean and standard error."}, "[17]": {"test_system": "(AT)20-Hoechst 33258 complex", "assay": "Competitive binding / FRET / CD study with preformed Hoechst complex", "settings": "Hoechst 4 μM + (AT)20, TC 0 to 40 μM, CD signal"}, "[18]": {"test_system": "Plasmodium falciparum", "assay": "Live cell fluorescence imaging of malaria parasites in erythrocytes", "format": "cell-based, P. falciparum 3D7 strain", "settings": "(FIG. 38 legend 1 and 2 μM), 30 minutes"}, "[19]": {"assay": "Absorption, emission and quantum yield of probes without Aβ42 aggregates", "format": "physicochemical"}, "[20]": {"molecular_target": "α-Synuclein (α-Syn) aggregates (Homo sapiens, UniProt P37840)", "assay": "Selectivity: fluorescence with α-synuclein aggregates", "format": "binding", "settings": "α-Syn aggregates 20 μM"}, "[21]": {"molecular_target": "T1, islet amyloid polypeptide (IAPP) aggregates (Homo sapiens, UniProt P10997)", "T1 construct": "A 0.1 mg (Merck, calbiochem) sample of amylin is dissolved in 100 μL of acetonitrile; purchased Merck, calbiochem", "T1 sequence (P10997 34-70 limits assumed)": "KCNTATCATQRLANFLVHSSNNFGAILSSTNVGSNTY", "assay": "Selectivity: fluorescence with IAPP aggregates", "format": "binding", "settings": "IAPP aggregates 20 μM"}, "[22]": {"molecular_target": "Aβ42 aggregates (Homo sapiens, UniProt P05067)", "sequence (P05067 672-713 limits assumed)": "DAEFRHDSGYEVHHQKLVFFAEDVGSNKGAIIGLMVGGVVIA", "assay": "Binding saturation assay (fluorescence) for binding constant"}, "[23]": {"molecular_target": "ThT/Aβ42 aggregate complex (Homo sapiens, UniProt P05067)", "sequence (P05067 672-713 limits assumed, one chain of several)": "as the sequence (P05067 672-713 limits assumed) above", "assay": "ThT displacement / FRET assay", "format": "binding", "settings": "decay at 483 nm, enhancement at 654 nm"}, "[24]": {"molecular_target": "Aβ42 fibrillar aggregates (Homo sapiens, UniProt P05067)", "sequence (P05067 672-713 limits assumed)": "as above", "assay": "pH-dependent colorimetric and fluorometric response", "format": "binding", "settings": "TC 10 μM, PBS buffer"}, "[25]": {"settings": "Tris-HCl buffer (100 mM, pH 7.4)"}, "[26]": {"settings": "Table 3, probe of the disclosure"}}, "note": "Values joined by “and” are separate entries in the source; they are usually repeats but may differ in a detail not shown here. Equal entries are not always repeated. “Also recorded” adds a separate entry of the source. Marks after values point to notes of the source that are not given here."}
{"compound": "CCN(CC)c1ccc2cc(/C=C/c3sc4ccccc4[n+]3C)c(=O)oc2c1", "note": "[TC, (E)-3-(2-(N-methyl-benzo[d]thiazol-2-yl)vinyl)-7-(diethylamino)-2H-chromen-2-one]", "values": [{"measurement": "ΦF in Buffer", "setting": "[1]; Tris-HCl buffer (100 mM, pH 7.4), absence of DNA", "result": 0.03}, {"measurement": "emission (fluorescence) maxima", "setting": "[1]; Tris-HCl buffer, no DNA, very weak fluorescence", "result": 641, "unit": "nm"}, {"measurement": "absorption maxima", "setting": "[1]; probe 10 μM, Tris-HCl buffer, no DNA", "result": 528, "unit": "nm"}, {"measurement": "emission maxima in presence of (AT)10", "setting": "[2]", "result": 616, "unit": "nm"}, {"measurement": "fluorescence enhancement in presence of (AT)10", "setting": "[2]; DNA 0 to 12 μM", "result": "~8", "unit": "fold"}, {"measurement": "fluorescence enhancement in presence of (D1)mix", "setting": "[3]; TC 10 μM, DNA 0 to 12 μM", "result": "~6", "unit": "fold"}, {"measurement": "ΦF with (D1)mix", "setting": "[3]; [25]", "result": 0.11}, {"measurement": "fluorescence enhancement in presence of (D1)mix", "setting": "[3]; increasing concentrations of TC (1 μM to 20 μM), FIG. 10", "result": "~6", "unit": "fold"}, {"measurement": "ΦF with (GC)10", "setting": "[4]; [25]", "result": 0.04}, {"measurement": "fluorescence change in presence of (GC)10", "setting": "[4]; probe 10 μM", "result": "does not show such fluorescence enhancement"}, {"measurement": "fluorescence enhancement in presence of d(AATT)5", "setting": "[5]", "result": "~16", "unit": "folds"}, {"measurement": "Tm(DNA + TC)", "setting": "[6]", "result": 25.6, "unit": "°C"}, {"measurement": "Tm(DNA + TC)", "setting": "[7]", "result": 61.6, "unit": "°C"}, {"measurement": "gel staining of (AT)20 band", "setting": "[8]", "result": "strong fluorescence intensity"}, {"measurement": "gel staining of (GC)10 band", "setting": "[9]", "result": "not stained"}, {"measurement": "Fluorescence maxima DNA bound dye", "setting": "[10]; [26]", "result": 610, "unit": "nm"}, {"measurement": "Fluorescence maxima free dye", "setting": "[10]; [26]", "result": 641, "unit": "nm"}, {"measurement": "Fluorescence qauntum yield (ΦF) DNA bound dye", "setting": "[10]; Table 3, superscript b", "result": "0.36^b"}, {"measurement": "preferential binding affinity, AT-sites versus GC-sites", "setting": "[10]; fluorescence studies with dsDNAs", "result": "towards AT-sites than GC-sites"}, {"measurement": "Cell permeability", "setting": "[11]", "result": "Permeable"}, {"measurement": "Toxicity", "setting": "[12]", "result": "Non-Toxic"}, {"measurement": "nuclear staining of HeLa S3 cells", "setting": "[13]", "result": "selective targeting to the cell nucleus"}, {"measurement": "co-localization with cytoplasmic marker α-tubulin", "setting": "[14]", "result": "does not co-localize with cytoplasmic marker α-tubulin"}, {"measurement": "fluorescence nuclear staining after DNase I digestion", "setting": "[15]; DNase I about 100 μg/mL", "result": "almost completely diminished"}, {"measurement": "fluorescence nuclear staining after RNase digestion", "setting": "[15]; RNase about 30 μg/mL", "result": "does not affect the fluorescence staining"}, {"measurement": "cytotoxicity, dose dependent MTT", "setting": "[16]; HEK293 cells, 2.5, 5 and 7.5 μM, about 30 minutes", "result": "non-toxic"}, {"measurement": "viable cells", "setting": "[16]; HEK293 cells, about 5 μM TC, about 24 hours", "result": "about 64%"}, {"measurement": "competition with Hoechst for minor groove binding site", "setting": "[17]", "result": "not competing with Hoechst for binding site in the minor groove of dsDNA"}, {"measurement": "staining of trophozoite stage parasites in red blood cells", "setting": "[18]", "result": "specifically binds to the parasite cells within the red blood cells; also recorded: accumulated specifically in the nucleus of the parasitized red blood cell"}, {"measurement": "absorption maximum TC/chloroform", "setting": "[19]; Experiment", "result": 561, "unit": "nm"}, {"measurement": "absorption maximum TC/water", "setting": "[19]; Experiment", "result": 537, "unit": "nm"}, {"measurement": "absorption maximum in absence of Aβ42 aggregates", "setting": "[19]; PBS buffer (10 mM, pH 7.4)", "result": 537, "unit": "nm"}, {"measurement": "emission maximum in absence of Aβ42 aggregates", "setting": "[19]; PBS buffer, very weak fluorescence", "result": 638, "unit": "nm"}, {"measurement": "fluorescence enhancement with α-Syn aggregates", "setting": "[20]", "result": "does not lead to significant fluorescence enhancements"}, {"measurement": "fluorescence enhancement with IAPP aggregates", "setting": "[21]", "result": "does not lead to significant fluorescence enhancements"}, {"measurement": "association constant Ka", "setting": "[22]; 2 μM of Aβ42 aggregates", "result": "1.72e+07", "unit": "M⁻¹"}, {"measurement": "Kd", "setting": "[22]; fluorescence saturation curve, Aβ42 aggregates 10 μM (QC) or 2 μM (TC), read-out: dissociation constant Kd", "result": "58 ± 1.2", "unit": "nM"}, {"measurement": "displacement of ThT from ThT/Aβ42 aggregate complex", "setting": "[23]", "result": "effective displacement of ThT by TC"}, {"measurement": "pH range in which colorimetric and emission properties with Aβ42 aggregates are unaffected / usable", "setting": "[24]", "result": "3 to 8 and 2-8"}]}
